The values that follow come from publication PMC4319564 (Journal of materials chemistry. B, Materials for biology …, 2014).

The structures appear in SMILES notation.

The test concerns PTX-resistant KB-V1 cervical cancer cells. As to the kind of experiment: Cytotoxicity, SRB assay. The note with it: 48 h incubation, 0.01-1000 nM, triplicate. The test is classed as cell-based. A general note: Sulforhodamine B stains cellular protein and so reports cell mass.

`CC(=O)O[C@H]1C(=O)[C@@]2(C)[C@H]([C@H](OC(=O)c3ccccc3)[C@]3(O)C[C@H](OC(=O)[C@H](O)[C@@H](NC(=O)c4ccccc4)c4ccccc4)C(C)=C1C3(C)C)[C@]1(OC(C)=O)CO[C@@H]1C[C@@H]2O` [PTX, paclitaxel]: the “Toxicity (in words)” value is “do not exert any toxicity”.
